Experiments:
CFSE-labeled CD4 T-cells = type: cell-based, human; details: NL4-3-infected effector cells
Method: (A) Experimental strategy to assess indirect cell killing in HIV-1-infected human lymphoid cultures. Fresh human tonsil tissue from a single donor is processed into HLAC, and then separated into two fractions. One fraction is challenged with HIV-1 and cultured for 6 days, allowing viral spread. On day 5, the uninfected fraction is treated with AZT (5 μM) and labeled with CFSE (1 μM). On day 6, the infected and CFSE-labeled (i.e., uninfected) cultures are mixed and co-cultured in the presence of AZT. […] After 6 days of co-culturing, the number of viable CFSE-positive cells is determined by flow cytometry. (B) Flow cytometry analysis of the mixed HLACs. Indirect killing is determined by gating on live CFSE-positive cells in the mixed cultures. Effector cells are either infected or uninfected cells. […] CFSE-labeled cells mixed with uninfected or infected cells were cultured in the presence of 5 μM AZT alone or together with 250 nM AMD3100. Data represent live CFSE-positive cells 6 days after co-culture with infected or uninfected effector cells. […] The absolute numbers of viable CFSE-positive CD4 and CD8 T-cells and B cells were determined. Percentages are normalized to the number of viable CFSE-positive cells co-cultured with uninfected cells in the presence of AZT, as depicted by (*). Error bars represent standard deviations of three samples from the same donor. […] See also FIG. 3.
Human tonsil or splenic tissues from routine tonsillectomies were obtained from the National Disease Research Interchange and the Cooperative Human Tissue Network and processed as previously described (Jekle et al., 2003, J Virol 77:5846-5854). In brief, tonsils or spleen were minced, passed through a 40-μm cell strainer, and cultured in 96-well U-bottomed polystyrene plates (2×10^6 cells/well) in medium (200 μl/well) consisting of RPMI 1640 supplemented with 15% heat-inactivated fetal bovine serum, 100 μg/ml gentamicin, 200 μg/ml ampicillin, 1 mM sodium pyruvate, 1% nonessential amino acids (Mediatech), 2 mM L-glutamine, and 1% fungizone (Invitrogen). All HIV-1 infections were carried out with 20-50 ng of HIV-1 p24^gag. Cells were incubated with the virus for 12-16 h, washed extensively, and supplemented with fresh medium. After day 5, infections were monitored by measuring p24gag levels in the culture medium using a FLAQ assay (Hayden et al., 2003, AIDS 17:629-631). Infected and uninfected cultures were manipulated as described for individual experiments. In “indirect killing” assays, unless otherwise stated, drugs were used at the following concentrations: 5 μM AZT; 250 nM AMD3100; 10 μg/ml T20; 100 nM Efavirenz; 1 μM Nevirapine; 30 μM Raltegravir; 60 μM 118-D-24; 5 μM Amprenavir; 5 μM Saquinavir; 5 μM Indinavir. CFSE-labeled cells were activated with PHA (5 μg/ml) and IL-2 (20 ng/ml) 2 days before mixing with effector cells.
Uninfected cells (5×10^6/ml) were labeled with 1 μM CFSE (Molecular Probes C1157), treated with 5 μM AZT for 24 h, and co-cultured with effector cells. CFSE readily diffuses into cells, where intracellular esterases cleave the acetate groups, converting it to a fluorescent, membrane-impermeable dye.

SupT1 cells = assay: Virion-based fusion assay (BlaM-Vpr); type: cell-based; details: virions produced in the presence of amprenavir
Method: The virion-based fusion assay is performed in three successive steps: (1) incubation of target cells with virions, (2) loading of target cells with the CCF2/AM dye, and (3) development and detection of the BlaM reaction. SupT1 cells (5×10^5) were incubated with BlaM-Vpr containing virions (400 ng of p24^gag at 37° C. for 2 hours, washed in CO2-independent medium (GibCo BRL), and loaded with CCF2/AM dye as described by the manufacturer (Invitrogen). Briefly, 2 μl of CCF2/AM (1 mM) was mixed with 8 μl of 0.1% acetic acid containing 100 mg/ml Pluronic-F127R and 1 ml of DEEM to constitute the loading solution. Cells were incubated in 100 μl of loading solution for 1 hour at room temperature. After two washes with DEEM, the BlaM reaction was executed for 16 hours at room temperature in 200 μl of DMEM supplemented with 10% FBS and 2.5 mM probenecid, a nonspecific inhibitor of anion transport (Sigma Pharmaceuticals). Finally, the cells were washed once in DMEM and fixed in a 2% solution of paraformaldehyde. The change in emission fluorescence of CCF2 after cleavage by the BlaM-Vpr chimera was monitored by flow cytometry with LSR2 (Becton Dickinson, San Jose, Calif.). Data were collected with DiVa software and analyzed with FlowJo software (Treestar, San Carlos, Calif.).

[1] = test system: SupT1 CD4 T leukemic cells; assay: Syncytia formation in NL4-3-infected SupT1 cells; type: cell-based; details: 5 μM protease inhibitor, 2.5 days
Method: (A) The spinoculation procedure. (B) Flow cytometry of viable CD4 versus CD8-T-cells in HLAC three days after spinoculation in the presence of the indicated drugs. Data represent live-gated cells, based on the forward-scatter versus side-scatter profile of the complete culture. Of note, apoptotic cells were included in the analysis of caspases activity and cytokine expression (FIG. 10E, F). Drugs concentrations: AZT 5 μM; Efavirenz 100 nM; AMD3100 250 nM; T20 10 μg/ml. The data are representative results of six independent experiments with six different donors. […] (C) Highly permissive SupT1 CD4 T leukemic cells were infected with NL4-3 and cultivated for 3 days to allow substantial infection but not syncytia formation. […] After 2.5 days of additional culture, the extent of syncytia formation in each sample was evaluated by light microscopy. […] Results are representative of three independent experiments.

NL4-3 and TR712 virions = assay: Viral maturation, immunoblot of viral lysates produced in 293T-cells; type: cell-based; details: NL4-3 and TR712 virions produced with amprenavir
Method: NL4-3 and TR712 viruses were generated in 293T-cells with or without amprenavir, lysed and subjected to SDS-PAGE immunoblotting analysis for gp120, p55 Gag, p24 CA, Blam-Vpr, and free Blam. […] SupT1 cells were mock infected or infected with mature or immature NL4-3 or TR712 virions containing Blam-Vpr. After loading of cells with CCF2 dye, fusion was analyzed by flow cytometry. Percentages are the fraction of cells displaying increased cleaved CCF2 fluorescence, indicating virion fusion.
The effect of protease inhibitors on viral maturation was assessed first. NL4-3 viruses carrying a β-lactamase-Vpr (BlaM-Vpr) reporter protein were produced in 293T-cells in the presence or absence of the HIV protease inhibitor amprenavir.

HLAC CD4 T-cells = assay: HLAC cells overlaid on virus-producing 293T-cells, CD4 T-cell depletion; type: cell-based, human; details: TR712-transfected 293T-cells in the presence of amprenavir
Method: HLACs were infected with viruses derived from the indicated HIV proviral clones in the presence of the indicated concentrations of AZT or in the absence of drugs. Six days after infection the amount of p24^gag in the medium was determined by FLAQ assay. The amount of p24^gag in the medium after infection wash (day 0) was defined as 0%. […] Viral incorporation of endogenous A3G was measured by immunoblot analysis of purified NL4-3 and Δvif NL4-3 virions harvested from 1 ml of supernatant from infected HLACs. Doses reflect 1:10 dilutions. […] Resting or activated CFSE-labeled cells were co-cultured with cells infected with WT or Δvif NL4-3 in the presence or absence of the following drugs, AZT (5 μM), AMD3100 (250 nM), the NNRTIs Efavirenz (100 nM), and Nevirapine (1 μM), or the integration inhibitors Raltegravir (30 μM) and 118-D-24 (60 μM). Data are representative of four independent experiments performed with cells from four different donors. (E) A method to assess indirect killing in HLAC with non-infectious HIV-1 clones. Fresh human tonsil is processed into HLAC and cells are cultured in suspension. At the same time 293T-cells are transfected with 1 μg HIV-1 DNA in a 24-well plate. After 12 hours, 293T-cells are washed and overlayed with 3×10^6 HLAC cells in RPMI in the presence of the indicated drugs. Virus-producing 293T-cells directly interact with target overlaying HLAC cells. After 24 hours, the HLAC suspensions are collected from wells and analyzed by flow cytometry. […] HLAC were cultured with the indicated drugs 3 hours before co-culture with 293T-cells. Percentages are normalized to the number of viable CD4 T-cells in HLAC overlaying non-transfected 293T-cells in the presence of AZT, as depicted by (*). Error bars represent standard error of the mean of three experiments performed using cells from three different HLAC donors.

CC(C)CN(C[C@@H](O)[C@H](Cc1ccccc1)NC(=O)O[C@H]1CCOC1)S(=O)(=O)c1ccc(N)cc1 [Amprenavir]
indirect killing (loss) of resting CFSE-labeled CD4 T-cells (CFSE-labeled CD4 T-cells): inhibit indirect killing
decline in fusogenic properties of immature NL4-3 viruses (SupT1 cells): 90%
fusion capacity retained by immature TR712 (SupT1 cells): 40%
syncytia formation / cell-cell fusion [1]: do not block syncytia formation
Gag processing in virions (NL4-3 and TR712 virions): an uncleaved form of p55 Gag polypeptide rather than the mature p24 CA protein accumulated
CD4 T-cell killing by TR712 viruses (HLAC CD4 T-cells): prevented CD4 T-cell killing by TR712 viruses

Source: patent US9352010B2, “Treatment of HIV-1 infection and AIDS” (The J. David Gladstone Institutes, priority 2011, dated 2016)
